Read-outs that look alike come from different tables or passages of the source.
What was measured:
[1] = test system: Asian volunteers with dull skin and large senescence spots; experiment: Clinical study: skin color analysis using Colorface (homogeneity, radiance, pigment defect); format: in vivo, human; conditions: for Pigment defect Mean +/− SD / Radiance Mean +/− SD / Pigment defect Average volume (mm^3) vs D 0 / Radiance Average variation (%) vs D 0: cream with 2% ascorbic acid, hemiface, Asian women; for pigment homogeneity, fold better than the placebo: vitamin C cream 2%
Source text: For this study, volunteers applied the cream twice a day for 56 days. […]
Volunteers were divided into two groups as follows: • Group 1: 20 Asian women testing the active cream in comparison to the placebo cream with an average age of 54±5 years. • Group 2: 18 Asian women testing the vitamin C cream in comparison to the placebo cream with an average age of 53±8 years.
Volunteers applied a cream containing 0.4% of active, 2% of ascorbic acid (vitamin C), respectively, on one hemiface and a placebo cream on the other hemiface […] for 56 days.
During this study, a skin color and spots analysis was conducted using Colorface®, biomechanical properties were tested using Cutometery®, and the dermis thickness was determined using a DUB SkinScanner 75® probe (max. depth of 3.28 mm).
Skin color measurements were performed based on photos taken with the Colorface® acquisition system. Colorface® is a 2D acquisition system for taking standardized and multimodal photos of the entire face. The device is equipped with a 24M pixel sensor and also has a specific UV lamp. The acquisition methods are: UltraViolet, photo without filter, cross-polarized photo, parallel-polarized photo, standard 45° photo, and standard […].
An analysis of the radiance of the complexion, pigment spots, color (L*,a*,b* parameters) and melanin on the spots from photos using image analysis software was performed. 2D photos of the face were taken on D0, D28 and D56.

[2] = test system: female volunteers with a dark skin type (phototype IV or more) and dull skin; experiment: Clinical evaluation on African skin: skin color by Chromameter L* parameter; format: in vivo, human; conditions: cream 0.4%, full face twice daily; for increase of L* on uneven skin tone area: dark skin type
Protocol: The clinical study was carried out on 85 female volunteers aged from 19 to 47 years, which were divided in three groups: active, placebo and aglycone. The study was performed in South Africa on female volunteers with a dark skin type (phototype IV or more) and dull skin. All participants provided signed informed consent at the beginning of the study. The study was conducted according to the guidelines of the Declaration of Helsinki. […] Skin color evolution was measured after 14, 28 and 56 days using L* parameter measurement by Chromameter®.
The skin color was evaluated by means of a Chromameter CR400, which measures skin color, and the parameter L* (lightness) was recorded. The greater the value, the lighter the skin color. Depending on the test type, at least three or at least 15 readings were taken at each test sub-site for each time interval to serve as the specific pigmentation sport color measurement component of the study. Skin color was analyzed at D0, D14, D28 and D56.
For all studies in vivo, a Shapiro Wilk test was used to verify whether the raw data followed the Gaussian Law. In case of Normally-distributed data, the mean values were compared using either an unpaired or paired t student test. In case of non-Normally-distributed data, a Wilcoxon (paired) and Kruskal-Wallis test followed by a Mann-Whitney U (unpaired) test were used for paired data and unpaired data, respectively.

[3] = test system: Lactobacillus acidophilus; experiment: Growth promotion of Lactobacillus acidophilus (OD600); format: cell-based; conditions: MRS broth 50% in PBS, 48 hours, anaerobic
Protocol: In order to further investigate the effect of the active of the present invention on bacteria, the growth of Lactobacillus acidophilus in MRS medium supplemented with different concentrations of EGCG MONOG was evaluated for 48 hours.
L. acidophilus (DSM 20079) was cultivated at 37° C. under anaerobic conditions on De Man, Rogosa Sharpe (MRS) agar. After bacterial amplification in culture medium, for each bacterial strain, a bacterial suspension was prepared using the assay medium (MRS broth 50% in PBS) and adjusted to an optical density at 600 nm (OD600 nm) of 0.2. The bacterial suspension was then transferred to 96-well plates, some of which contained the test compounds from 0.015% to 1%. The strain cultivated with powdered milk at 0.01% served as a positive control.
Bacterial cultures were incubated at 37° C. under agitation (˜280 rpm) and under anaerobic condition. OD600 nm were read in kinetic for 48 hours using a microplate spectrophotometer (EPOCH2, BioTek Instruments) to analyze the bacterial growth.
All experimental conditions were performed in triplicate.

[4] = test system: spontaneous formation of Advanced Glycation End-products (AGEs); experiment: Anti-glycation in tubo assay (BSA + ribose, fluorescence); format: biochemical; conditions: 17 h at 37° C.; for IC50: BSA + ribose, read-out: IC50 in well (concentration which inhibits AGEs formation by half)
Protocol: The anti-glycation effect was evaluated using an in tubo assay to measure the spontaneous formation of Advanced Glycation End-products (AGEs). This assay was conducted on a 96-wells microplate. […] The extracts were diluted in sodium phosphate buffer (0.1 M, pH 7.4). Several dilutions were tested. Each diluted extract was run in triplicate. A standard range of aminoguanidine was used as inhibitor reference (positive control). A mixture of the sodium phosphate buffer and BSA was used to validate the experiment and a mixture of sodium phosphate buffer, BSA and ribose was used as the positive control. Two blanks were carried out for the extract: • with phosphate buffer, BSA and extract • with phosphate buffer, ribose and extract The microplate was agitated and incubated for 17 h at 37° C. The fluorescence reading was performed with ? excitation 340 nm and ? emission 420 nm. The anti-glycation activity of the extract was calculated as follows: [formula] FI: Fluorescence of tested extract; blank extract (ribose or BSA); positive control; negative control. Based on the above measurements and calculation, the IC50, i.e. the concentration of the extract which inhibits AGEs formation by half, was calculated.

[5] = test system: Lactobacillus acidophilus; conditions: 1%, culture supernatant, NMR, vs untreated
Protocol: The supernatants of the cultures previously described in Example 10, both of the untreated strain culture and the culture of L. acidophilus treated with 1% EGCG MONOG were kept and frozen at −80° C. before analysis using high-field NMR. For each of these two conditions, three samples were analyzed to assess the tests reproducibility (n=3).
For each sample, 400 μl of supernatant were taken and 100 μl of D2O/TSP (3-(trimethylsilyl)propionic-2,2,3,3-d4 acid sodium salt, internal reference) were added at a concentration of 1 g/l. The samples were analyzed by high field ^1H NMR on a Bruker ASCEND 500 spectrometer operating at a proton frequency of 500 MHz using a 5 mm cryosonde probe. NMR spectra were calibrated to TSP-d4 at 0 ppm using Topspin software version 4.3.0 (Bruker Biospin, Germany). Quantification of metabolites was performed by utilizing the internal standard (TSP-d4) added at a known concentration. Compounds were quantified by the relative ratio of the intensities of their peak integrals and those of the internal standard.

**Q.** What does the source list for `O=C1O[C@H]([C@@H](O)CO)C(O)=C1O` [Ascorbic acid, ascorbic acid]?
**A.** Pigment defect Mean +/− SD ([1]; D 0 (baseline)): 15660 ± 4532 arbitrary unit; Radiance Mean +/− SD ([1]; D 0 (baseline)): 72.3 ± 1.6 arbitrary unit; Pigment defect Average volume (mm^3) vs D 0 ([1]; D 28): −11.7%; Pigment defect Mean +/− SD ([1]; D 28): 13826 ± 4311 arbitrary unit; Radiance Average variation (%) vs D 0 ([1]; D 28): 0.7%; Radiance Mean +/− SD ([1]; D 28): 72.7 ± 1.9 arbitrary unit; Pigment defect Average volume (mm^3) vs D 0 ([1]; D 56): −16.5%; Pigment defect Mean +/− SD ([1]; D 56): 13078 ± 3731 arbitrary unit; Radiance Average variation (%) vs D 0 ([1]; D 56): 1.4%; Radiance Mean +/− SD ([1]; D 56): 73.3 ± 2.3 arbitrary unit; pigment homogeneity, fold better than the placebo ([1]; day 28): 1.6 fold; pigment homogeneity, fold better than the placebo ([1]; day 56): 1.8 fold

**Q.** For `O=C(O[C@@H]1Cc2c(O)cc(O)cc2O[C@@H]1c1cc(O)c(O[C@H]2O[C@H](CO)[C@@H](O)[C@H](O)[C@H]2O)c(O)c1)c1cc(O)c(O)c(O)c1` [epigallocatechin gallate 4′-O-α-monoglucoside], which “increase of L*, global skin color, 15 measurements on hemi face” value ([2]; dark skin type, 14, 28 and 56 days) is on record?
**A.** up to +6.8%

**Q.** And the “increase of L* on uneven skin tone area” value ([2]; after 14 days)?
**A.** +1.3%

**Q.** And the “increase of L* on uneven skin tone area” value ([2]; after 28 days)?
**A.** +4.7%

**Q.** And the “increase of L* on uneven skin tone area” value ([2]; after 56 days)?
**A.** +6.3%

**Q.** And the “increase of growth of Lactobacillus acidophilus vs culture without EGCG MONOG” value (“increase … vs culture without EGCG MONOG” below) ([3]; 0.13%)?
**A.** 6%

**Q.** And the “increase … vs culture without EGCG MONOG” value ([3]; 0.4%)?
**A.** 9%

**Q.** And the “increase … vs culture without EGCG MONOG” value ([3]; 1%)?
**A.** 27%

**Q.** What about the IC50 ([4]; listed as ECGC monoglucoside) of the same compound?
**A.** 133 µM

**Q.** And the IC50 [4]?
**A.** 118 µM

**Q.** And the “Inhibition AGE's” value ([4]; tested concentration 0.08 mM)?
**A.** 31.01%

**Q.** What about the “Inhibition AGE's” value ([4]; tested concentration 0.4 mM) of the same compound?
**A.** 53.22%

**Q.** And the “Inhibition AGE's” value ([4]; tested concentration 1 mM)?
**A.** 81.54%

**Q.** What about the “Inhibition AGE's” value ([4]; tested concentration 8 mM) of the same compound?
**A.** 109.26%

**Q.** What about the “effect on pigment homogeneity, times more pronounced relative to the placebo” value ([1]; active cream 0.4%, after 28 days) of the same compound?
**A.** 3.0 times

**Q.** What about the “reduction of pigment defect (melanin content in pigmented spots area) compared to the placebo” value ([1]; active cream 0.4%, after 56 days) of the same compound?
**A.** up to −21.7%

**Q.** And the “decrease of consumption of sugars by L. acidophilus” value [5]?
**A.** 17%

**Q.** What about the “increase of Trigonelline released by L. acidophilus” value [5] of the same compound?
**A.** up to 65%

**Q.** And the “increase of polysorbate consumption by L. acidophilus” value [5]?
**A.** 51%

From US20260152777A1, “METHOD FOR PRODUCING EPIGALLOCATECHIN GALLATE MONOGLUCOSIDE” (GIVAUDAN SA, priority 2022, published 2026)
